# Laboratory results: patent US9840510B1, “Pyrazolo[1,5-a]pyrimidinyl carboxamide compounds and their use in the treatment of medical disorders” (Lysosomal Therapeutics Inc., priority 2016, dated 2017)
# Experiment: Compound solubility in water
# Format: physicochemical
SMILES,solubility [µg/mL],Compound Solubility in Water [µg/mL]
Cc1cc(N2CCN(C(C)C)C2=O)nc2c(C(=O)N[C@@H](C3CC3)C(F)(F)F)cnn12 [III-326],21,
Cc1cc(N2CCC(C)(C)C2=O)nc2c(C(=O)NC(C3CC3)C(F)(F)F)cnn12 (stereo not shown) [III-328],3.3,
Cc1cc(C)n2ncc(C(=O)N[C@H](C3CC3)C(F)(F)F)c2n1 [III-10],15.3,
Cc1cc(-c2cccc3c2ncn3C)nc2c(C(=O)NC(C3CC3)C(F)(F)F)cnn12 (stereo not shown) [III-310],0.3,
Cc1cc(-c2ccc3ocnc3c2)nc2c(C(=O)NC(C3CC3)C(F)(F)F)cnn12 (stereo not shown) [III-108],,0.3
Cc1cc(-c2cc(F)c3ocnc3c2)nc2c(C(=O)NC(C)C(F)(F)F)cnn12 (stereo not shown) [III-295],3.4,
Cc1cc(N2CCCN(C(C)C)C2=O)nc2c(C(=O)NC(C)(C)C3CC3)cnn12 [III-261],23,
Cc1cc(-c2ccccc2C#N)nc2c(C(=O)N[C@H](C)C(F)(F)F)cnn12 [III-212],0.7,
Cc1cc(N2CCCC(F)(F)C2)nc2c(C(=O)N[C@@H](C3CC3)C(F)(F)F)cnn12 [III-95],1,
Cc1cc(-c2cnccc2F)nc2c(C(=O)NC(C3CC3)C(F)(F)F)cnn12 (stereo not shown) [III-124],1.9,
Cc1cc(-c2ccc(F)cc2C#N)nc2c(C(=O)N[C@@H](C)C(F)(F)F)cnn12 [III-156],0.3,
Cc1cc(N2CCNC2=O)nc2c(C(=O)NC(C3CC3)C(F)(F)F)cnn12 (stereo not shown) [III-228],2.4,
Cc1cc(-c2ccc3c(c2)OCO3)nc2c(C(=O)N[C@@H](C)C3CC3)cnn12 [III-210],2.4,
COc1cccc(-c2cc(C)n3ncc(C(=O)N[C@@H](C)C(F)(F)F)c3n2)c1 [III-91],1.7,
Cc1cc(-c2ccc3ocnc3c2)nc2c(C(=O)N[C@H](C3CC3)C(F)(F)F)cnn12 [III-109],0.5,
Cc1cc(C)n2ncc(C(=O)NC(CC(C)C)C3CC3)c2n1 (stereo not shown) [III-5],25.7,
Cc1cc(C)n2ncc(C(=O)NC(C)(C)C3CC3)c2n1 [III-2],27.4,

SMILES,solubility [µg/mL],Compound Solubility in Water [µg/mL]
COc1cc(F)cc(-c2cc(C)n3ncc(C(=O)NC(C)C(F)(F)F)c3n2)c1 (stereo not shown) [III-410],0.06,
COc1cccc(-c2cc(C)n3ncc(C(=O)NC(C)C(F)(F)F)c3n2)c1 (stereo not shown) [III-55],1.7,
Cc1cc(-c2ccncc2)n2ncc(C(=O)NC(C)(C)C3CC3)c2n1 [III-21],10,
COc1c(F)cccc1-c1cc(C)n2ncc(C(=O)NC(C)C(F)(F)F)c2n1 (stereo not shown) [III-140],1.1,
Cc1cc(C#N)c(-c2cc(C)n3ncc(C(=O)NC(C4CC4)C(F)(F)F)c3n2)o1 (stereo not shown) [III-245],0.008,
Cc1cc(-c2cnccc2Cl)nc2c(C(=O)NC(C3CC3)C(F)(F)F)cnn12 (stereo not shown) [III-122],2.1,
COc1ccc(F)c(-c2cc(C)n3ncc(C(=O)N[C@H](C)C(F)(F)F)c3n2)c1 [III-97],0.2,
Cc1cc(-c2cc(C)n3ncc(C(=O)N[C@H](C4CC4)C(F)(F)F)c3n2)sn1 [III-215],0.3,
Cc1cc(-c2ccccn2)n2ncc(C(=O)N[C@@H](C)C3CC3)c2n1 [III-25],22.5,
Cc1cc(-c2cccnc2C#N)nc2c(C(=O)N[C@@H](C3CC3)C(F)(F)F)cnn12 [III-366],1.1,
Cc1cc(-c2ccccc2C#N)nc2c(C(=O)NC(C3CC3)C(F)(F)F)cnn12 (stereo not shown) [III-211],0.2,
Cc1cc(-n2ccc(Cl)n2)nc2c(C(=O)NC(C3CC3)C(F)(F)F)cnn12 (stereo not shown) [III-107],0.1,
Cc1cc(-c2ccc(Cl)nc2)nc2c(C(=O)NC(C3CC3)C(F)(F)F)cnn12 (stereo not shown) [III-116],1,
Cc1cc(N2CCN(C(C)C)C2=O)nc2c(C(=O)NC(C)C(F)(F)F)cnn12 (stereo not shown) [III-227],9.4,
Cc1cc(-c2ccc(F)c(C(N)=O)c2)nc2c(C(=O)NC(C3CC3)C(F)(F)F)cnn12 (stereo not shown) [III-162],1,
Cc1cc(C)n2ncc(C(=O)NC(c3ccc(F)cc3)C(F)(F)F)c2n1 (stereo not shown) [III-184],1.1,
Cc1cnc(F)c(-c2cc(C)n3ncc(C(=O)N[C@H](C4CC4)C(F)(F)F)c3n2)c1 [III-374],1.1,
